Among the test systems are EKVX NSCLC; SK-OV-3 ovarian; RXF 393 renal; A498 renal; SF-539 CNS; COLO 205 colon; OVCAR-8 ovarian; OVCAR-5 ovarian; MALME-3M melanoma; UACC-62 melanoma.
Common to all, as to assay: NCI tumour cell line growth inhibition, 48 h

Values joined by “and” are separate entries in the source; they are usually repeats but may differ in a detail not shown here. Equal entries are not always repeated.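 Cultured in 96-well plates, cells were exposed to test compound for 48 hours across five concentrations. Here, GI50 denotes the concentration required for 50% inhibition of growth. TGI: concentration producing complete growth inhibition.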

Regarding `COC(=O)c1cc2c3ccccc3[nH]c2c2sccc12`, the GI50 in the assay on EKVX NSCLC was 4120 nM; in the assay on SK-OV-3 ovarian, 34100 nM; in the assay on RXF 393 renal, 23600 nM; in the assay with A498 renal, 21000 nM; with SF-539 CNS, 21500 nM; in the assay with COLO 205 colon it was 17000 nM. Also, the GI50 is 38300 nM in the assay on OVCAR-8 ovarian, 23100 nM with OVCAR-5 ovarian, 29300 nM in the assay with MALME-3M melanoma and 22300 nM with UACC-62 melanoma. In addition, the TGI in the assay with EKVX NSCLC is above 100000 nM; with SK-OV-3 ovarian it was above 100000 nM; with RXF 393 renal it was 80400 nM; in the assay with A498 renal, 50600 nM; in the assay on SF-539 CNS it was 94800 nM; with COLO 205 colon it was 41800 nM. Moreover, the TGI in the assay on OVCAR-8 ovarian was above 100000 nM; in the assay on OVCAR-5 ovarian it was above 100000 nM; with MALME-3M melanoma, 62700 nM; in the assay with UACC-62 melanoma it was above 100000 nM.
Turning to `COC(=O)C12OCC34C(CC5C(C)C6=CC(=O)OC6=CC5(C)C3C(O)C1O)OC(=O)C(O)C24` (stereo not drawn), the GI50 with EKVX NSCLC was 249 nM; in the assay on SK-OV-3 ovarian, 328 nM; with RXF 393 renal, 403 nM; in the assay with A498 renal, 266 nM; with SF-539 CNS, 32.8 nM; in the assay on COLO 205 colon it was 252 nM. For the same compound, the GI50 in the assay with OVCAR-8 ovarian was 328 nM; in the assay on OVCAR-5 ovarian it was 599 nM; in the assay on MALME-3M melanoma it was 89.6 nM; in the assay with UACC-62 melanoma, 262 nM. Besides, the TGI in the assay on SK-OV-3 ovarian is 24600 nM; with RXF 393 renal it was 4490 nM; in the assay on A498 renal it was 507 nM and 1490 nM; in the assay with SF-539 CNS, 116 nM and 397 nM; in the assay with OVCAR-8 ovarian it was 14700 nM; in the assay with OVCAR-5 ovarian, 20300 nM. For the same compound, the TGI was 351 nM and 665 nM with MALME-3M melanoma; 779 nM and 1910 nM in the assay on UACC-62 melanoma.
Consider `O=C1C=CC(=O)N1c1cccc(N2C(=O)C=CC2=O)c1`, for which the GI50 in the assay on EKVX NSCLC was 19100 nM; in the assay with SK-OV-3 ovarian, 18200 nM; in the assay with RXF 393 renal, 1700 nM; in the assay on A498 renal, 16200 nM; in the assay on SF-539 CNS, 1840 nM; in the assay on COLO 205 colon, 1390 nM. Further, the GI50 is 2250 nM in the assay with OVCAR-8 ovarian, 1810 nM in the assay on OVCAR-5 ovarian, 3000 nM in the assay with MALME-3M melanoma and 2480 nM in the assay on UACC-62 melanoma. Moreover, the TGI in the assay with EKVX NSCLC amounted to 83100 nM; in the assay on SK-OV-3 ovarian, 32100 nM; with RXF 393 renal it was 3100 nM; with A498 renal it was 31100 nM; in the assay on SF-539 CNS, 3460 nM; with COLO 205 colon, 2880 nM. For the same compound, the TGI in the assay on OVCAR-8 ovarian came to 5170 nM; in the assay with OVCAR-5 ovarian, 4060 nM; in the assay on MALME-3M melanoma it was 6940 nM; in the assay on UACC-62 melanoma it was 9460 nM.
Consider `Clc1ccccc1CNc1c2ccccc2nc2ccccc12`, for which the GI50 was 2770 nM with EKVX NSCLC; 5410 nM in the assay with SK-OV-3 ovarian; 1290 nM in the assay with RXF 393 renal; 1750 nM with A498 renal; 1840 nM with SF-539 CNS; 1600 nM in the assay with COLO 205 colon. The GI50 in the assay on OVCAR-8 ovarian was 2410 nM; in the assay on OVCAR-5 ovarian, 2160 nM; with MALME-3M melanoma, 2710 nM; with UACC-62 melanoma, 2300 nM. In addition, the TGI came to 9850 nM in the assay with EKVX NSCLC; 12600 nM in the assay on SK-OV-3 ovarian; 4440 nM in the assay with RXF 393 renal; 6940 nM in the assay with A498 renal; 6710 nM in the assay with SF-539 CNS; 6160 nM with COLO 205 colon. In addition, the TGI in the assay with OVCAR-8 ovarian amounted to 13300 nM; in the assay on OVCAR-5 ovarian it was 9090 nM; in the assay with MALME-3M melanoma, 9100 nM; with UACC-62 melanoma it was 9180 nM.
Regarding `Cn1c(N)nc(=O)c2c1N(C1OC(CO)C(O)C1O)CN2Cc1ccccc1` (stereo not drawn), the TGI in the assay on EKVX NSCLC, with SK-OV-3 ovarian, in the assay with RXF 393 renal, in the assay with A498 renal, in the assay with SF-539 CNS and in the assay on COLO 205 colon was above 100000 nM each time. Moreover, the TGI in the assay with OVCAR-8 ovarian, in the assay with OVCAR-5 ovarian, with MALME-3M melanoma and in the assay with UACC-62 melanoma was above 100000 nM throughout.
As to `C=C(CO)[C@@H]1CC[C@]2(COC3CCCCO3)CC[C@]3(C)[C@H](CC[C@@H]4[C@@]5(C)C=C(C=O)C(=O)C(C)(C)[C@@H]5CC[C@]43C)[C@@H]12` (stereo partly drawn), the GI50 was 259 nM with EKVX NSCLC; 1300 nM in the assay on SK-OV-3 ovarian; 172 nM in the assay with RXF 393 renal; 234 nM in the assay with A498 renal; 196 nM in the assay on SF-539 CNS; 273 nM in the assay with COLO 205 colon. Also, the GI50 is 356 nM in the assay on OVCAR-8 ovarian, 232 nM in the assay with OVCAR-5 ovarian, 222 nM in the assay on MALME-3M melanoma and 177 nM in the assay with UACC-62 melanoma. The TGI with EKVX NSCLC was determined as 856 nM; in the assay with SK-OV-3 ovarian it was 2680 nM; in the assay on RXF 393 renal it was 334 nM; in the assay on A498 renal, 938 nM; in the assay with SF-539 CNS, 428 nM; with COLO 205 colon, 833 nM. The TGI with OVCAR-8 ovarian amounted to 1440 nM; in the assay on OVCAR-5 ovarian it was 853 nM; in the assay on MALME-3M melanoma, 544 nM; in the assay with UACC-62 melanoma it was 386 nM.
As for `CCCN(CCC)c1ccc(/C=N/NC(=O)c2cccnc2)c(OC)c1`, the GI50 in the assay with EKVX NSCLC was 16900 nM; with SK-OV-3 ovarian, 21600 nM; in the assay with RXF 393 renal, 28700 nM; with A498 renal, 2270 nM; in the assay on SF-539 CNS it was 28300 nM; in the assay with COLO 205 colon, 20100 nM. Also, the GI50 in the assay on OVCAR-8 ovarian was 29900 nM; in the assay on OVCAR-5 ovarian it was 26500 nM; in the assay with MALME-3M melanoma it was 18800 nM; in the assay on UACC-62 melanoma it was 16200 nM. Besides, the TGI in the assay with EKVX NSCLC is 59200 nM; in the assay with SK-OV-3 ovarian, 71300 nM; in the assay on RXF 393 renal it was 84800 nM; in the assay with A498 renal, 17900 nM; in the assay on SF-539 CNS it was above 100000 nM; in the assay on COLO 205 colon, 46300 nM. The TGI was above 100000 nM in the assay on OVCAR-8 ovarian, above 100000 nM in the assay with OVCAR-5 ovarian, 50400 nM in the assay with MALME-3M melanoma and 45600 nM with UACC-62 melanoma.
As to `CCc1ccc(C(=Nc2ccc(N(C)C(=O)CN3CCN(C)CC3)cc2)c2c(O)[nH]c3ccc(C(=O)OC)cc23)cc1`, the GI50 in the assay with EKVX NSCLC is 788 nM; with SK-OV-3 ovarian, 245 nM; in the assay with RXF 393 renal it was 220 nM; with A498 renal, 398 nM; in the assay with SF-539 CNS, 426 nM; with COLO 205 colon it was 319 nM. Besides, the GI50 with OVCAR-8 ovarian is 772 nM; in the assay on OVCAR-5 ovarian, 1250 nM; in the assay with MALME-3M melanoma, 516 nM; with UACC-62 melanoma it was 1370 nM. The TGI in the assay with EKVX NSCLC came out at 2360 nM; in the assay on SK-OV-3 ovarian, 1230 nM; with RXF 393 renal it was 1200 nM; with A498 renal it was 1960 nM; with SF-539 CNS it was 1560 nM; in the assay on COLO 205 colon, 1700 nM. For the same compound, the TGI in the assay on OVCAR-8 ovarian came to 3210 nM; with OVCAR-5 ovarian, 2570 nM; in the assay on MALME-3M melanoma, 1900 nM; in the assay on UACC-62 melanoma, 3200 nM.

Values taken from PubChem BioAssay (NCI).
